Laboratory results taken from patent US10899776B2, “Antiviral and antibacteria agents based on quaternary ammonium compound complexed with boric acid and its derivatives” (B-Organic Films Corp, priority 2015, dated 2021).
“And” between values parts separate entries of the source, which are not always exact repeats. Equal values may be shown once.

How the values were obtained:
[1] = system: Vibrio parahaemolyticus CAIM 170; conditions: V. parahaemolyticus 1×10^6 cfu/mL, after 96 h; dose 5 mg/g of feed; untreated infected about 30%
SOD = conditions: RT q-PCR, treated vs non-treated shrimp; feed 5 mg/g
Method: (§1) Primer design is performed in the online application «primer3plus» (Untergasser, A., Nijveen, H., Rao, W., Bisseling, T., Geurts, R., Leunissen, J. A. M. 2007, Nucleic Acids Research, 35: 71-74) based in the following features: 18-24 nt length; GC content 35-65% product size 80-250 bp; and ≤2 GC clamp (Wang, X. and Seed, B., 2007). The primers are evaluated in the online application «Oligo Evaluator» Sigma Aldrich™ (St' Louis, Mo.) to check thermodynamic characteristics based in self-aligned primer and primer-dimer structures. The primers selected are ≤−2 Kcal/mol and evaluated using an in silico PCR software «Primer Digital» (Kalender et al., 2011). RNA extracts used for the microarray hybridizations are converted to cDNA using promega GoScript™ Reverse Transcription System (Promega Corporation, Madison, Wis., USA) and SsoFast™ EvaGreen® Supermix (Bio-Rad, Hercules, Calif., USA) for RT-qPCR.

Toll-Like Receptor = conditions: RT q-PCR, treated vs non-treated shrimp; feed 5 mg/g
Method: as §1

Structure (SMILES): C[N+](C)(C)CCOB1OB2OB(O1)OB1OB(O2)O1.[Cl-] [choline/pentaborate complex]
- survival [1]: > 80% and 84%
- increase of expression of SOD gene (SOD): more than 200 fold
- increase of expression of Toll-Like Receptor gene (Toll-Like Receptor): more than 200 fold
